Data reported in patent US20260138959A1, “QUINAZOLINE DERIVATIVE COMPOUND AND USE THEREOF” (VORONOI INC., priority 2021, published 2026).
Read-outs that look alike come from different tables or passages of the source.

Experiments:
[1] = system: c-KIT V560G/D816V; assay: Proliferation inhibitory activity on Ba/F3 cell (CellTiter-Glo, 72 hours), c-KIT V560G/D816V; assay type: cell-based; settings: read-out: Cell (nM) c-KIT V560G/D816V (GI50 class)
Protocol: (§1) Ba/F3-TEL-PDGFRα(WT), Ba/F3-TEL-PDGFβ(WT), Ba/F3-c-KIT(D816V) (Kyinno, #KC-0138), c-KIT V560G/D816V, c-KIT D814Y were seeded at 3×10^3/100 μl/well in a clear bottom white 96-well plate. A culture solution containing compounds of 12 concentrations (0.00001-2 mM) serially diluted in 3 folds and the DMSO control group was added at 0.5 μl/well each to a final concentration of 0.00005-10 μM, and then incubated in a CO2 incubator at 37° C. for 72 hours. After 72 hours, the plate treated with the compound was taken out, CellTiter-Glo® Assay (Promega) solution was treated with 100 μl/well, followed by mixing well. After mixing well for about 10 minutes at room temperature, […] was measured using a microplate reader. The data were presented as percentages in proportion to treated cells based on the vehicle, GI50 (nM) values were calculated using GraphPad Prism 8.3.0 (GraphPad software Inc., San Diego).
(§2) The inhibitory activities of Ba/F3 expressing PDGFR-α, PDGFR-β, c-KIT(D816V), c-KIT V560G/D816V, and c-KIT D814Y measured as described above were measured and shown in Table 7 below (A: GI50≤200 nM; B: 200 nM<GI50≤500 nM; C: GI50>500 nM).

[2] = system: Ba/F3-c-KIT(D816V); assay: Proliferation inhibitory activity on Ba/F3 cell (CellTiter-Glo, 72 hours), c-KIT(D816V); assay type: cell-based
Protocol: as §1, §2

[3] = Mus musculus, BaF3, c-KIT V560G/D816V cells
[4] = Mus musculus, BaF3, read-out: Ba/F3 (nM) c-KIT (D816V) (GI50 class)

Compound	GI50 [2, 4] [nM]	further results
COc1cc2ncnc(-c3ccc(NC(=O)Cc4ccc(C(F)(F)F)cc4)cc3)c2cc1OCCCN1C[C@H]2C[C@@H]1CN2C [Example 159, N-(4-(7-methoxy-6-(3-((1R,4R)-5-methyl-2,5-diazabicyclo[2.2.1]heptane-2-yl)propoxy)quinazolin-4-yl)phenyl)-2-(4-(trifluoromethyl)phenyl)acetamide]	≤ 200	GI50 [1, 3]: 200 to 500 nM
COc1cc2c(-c3ccc(NC(=O)CCc4ccccc4)cc3)ncnc2cc1OCC1CCNCC1 [Example 71, N-(4-(6-methoxy-7-(piperidin-4-ylmethoxy)quinazolin-4-yl)phenyl)-3-phenylpropanamide]	≤ 200	GI50 [1, 3]: 200 to 500 nM
COc1cc2c(-c3ccc(NC(=O)Cc4ccc(C(F)(F)F)cc4)cc3)ncnc2cc1OCCCN1CCN(C)C(=O)C1 [Example 143, N-(4-(6-methoxy-7-(3-(4-methyl-3-oxopiperazin-1-yl)propoxy)quinazolin-4-yl)phenyl)-2-(4-(trifluoromethyl)phenyl)acetamide]	≤ 200	GI50 [1, 3]: ≤ 200 nM
N-(4-(7-methoxy-6-(pyridin-3-ylmethoxy)quinazolin-4-yl)phenyl)-2-(4-trifluoromethyl)phenyl)acetamide [Example 157]	–	GI50 ([1]; c-KIT V560G/D816V cells): > 500 nM; GI50 ([2]; read-out: Ba/F3 (nM) c-KIT (D816V) (GI50 class)): ≤ 200 nM
CCN1CC2(C1)CN(CCCOc1cc3ncnc(-c4ccc(NC(=O)Cc5ccc(C(F)(F)F)cc5)cc4)c3cc1OC)C2 [Example 21, N-(4-(7-(3-(6-ethyl-2,6-diazaspiro[3.3]heptane-2-yl)propoxy)-6-methoxyquinazolin-4-yl)phenyl)-2-(4-(trifluoromethyl)phenyl)acetamide]	≤ 200	–
COc1cc2c(-c3ccc(NC(=O)Cc4ccc(C(F)(F)F)cc4)cc3)ncnc2cc1OC[C@@H]1CCNC1 [Example 38, (R)-N-(4-(6-methoxy-7-(pyrrolidin-3-ylmethoxy)quinazolin-4-yl)phenyl)-2-(4-(trifluoromethyl)phenyl)acetamide]	≤ 200	–
COc1cc2ncnc(-c3ccc(NC(=O)Cc4ccc(C(F)(F)F)cc4)cc3)c2cc1OCCCN1CC(N(C)C)C1 [Example 152, N-(4-(6-(3-(3-(dimethylamino)azetidin-1-yl)propoxy)-7-methoxyquinazolin-4-yl)phenyl)-2-(4-(trifluoromethyl)phenyl)acetamide]	≤ 200	–
COc1cc2ncnc(-c3ccc(NC(=O)Cc4ccc(C(F)(F)F)cc4)cc3)c2cc1OCCCN1CC2(CNC2)C1 [Example 148, N-(4-(6-(3-(2,6-diazaspiro[3.3]heptane-2-yl)propoxy)-7-methoxyquinazolin-4-yl)phenyl)-2-(4-(trifluoromethyl)phenyl)acetamide]	> 500	–
COc1cc2c(-c3ccc(NC(=O)Cn4cc(C(C)(C)C)nn4)cc3)ncnc2cc1OCCCN1CCN(C)CC1 [Example 68, 2-(4-(tert-butyl)-1H-1,2,3-triazole-1-yl)-N-(4-(6-methoxy-7-(3-(4-methylpiperazin-1-yl)propoxy)quinazolin-4-yl)phenyl)acetamide]	≤ 200	–
COc1cc2c(-c3ccc(NC(=O)Cc4ccc(C(F)(F)F)cc4)cc3)ncnc2cc1OCC1CCCN(C(=O)OC(C)(C)C)C1 (stereo not drawn) [Example 14, tert-butyl 3-(((6-methoxy-4-(4-(2-(4-(trifluoromethyl)phenyl)acetamido)phenyl)quinazolin-7-yl)oxy)methyl)piperidin-1-carboxylate]	> 500	–
CCN1CCC(COc2cc3ncnc(-c4ccc(NC(=O)Cn5cc(C(C)C)nn5)cc4)c3cc2OC)CC1 [Example 65, N-(4-(7-((1-ethylpiperidin-4-yl)methoxy)-6-methoxyquinazolin-4-yl)phenyl)-2-(4-isopropyl-1H-1,2,3-triazole-1-yl)acetamide]	≤ 200	–
COc1cc2c(-c3ccc(NC(=O)Cn4cc(C(C)C)nn4)cc3)ncnc2cc1OCCCN1CCN(C)CC1 [Example 67, 2-(4-isopropyl-1H-1,2,3-triazole-1-yl)-N-(4-(6-methoxy-7-(3-(4-methylpiperazin-1-yl)propoxy)quinazolin-4-yl)phenyl)acetamide]	≤ 200	–
COc1cc2c(-c3ccc(NC(=O)Cc4ccc(C(F)(F)F)cc4)cc3)ncnc2cc1OCCCN1CC2(C1)CN(C(=O)OC(C)(C)C)C2 [Example 19]	≤ 200	–
COc1cc2c(-c3ccc(NC(=O)Cc4ccc(C(F)(F)F)cc4)cc3)ncnc2cc1OCC1CCCNC1 (stereo not drawn) [Example 16, N-(4-(6-methoxy-7-(piperidin-3-ylmethoxy)quinazolin-4-yl)phenyl)-2-(4-(trifluoromethyl)phenyl)acetamide]	≤ 200	–

The next lines start with results.

GI50 [2, 4] [nM]	Compound	further results
≤ 200	COc1cc2c(-c3ccc(NC(=O)Cc4ccc(C(F)(F)F)cc4)cc3)ncnc2cc1OCCCNC1CC1 [Example 25, N-(4-(7-(3-(cyclopropylamino)propoxy)-6-methoxyquinazolin-4-yl)phenyl)-2-(4-(trifluoromethyl)phenyl)acetamide]	GI50 [1, 3]: ≤ 200 nM
≤ 200	COCCN1CC(Oc2cc3ncnc(-c4ccc(NC(=O)Cc5ccc(C(F)(F)F)cc5)cc4)c3cc2OC)C1 [Example 28, N-(4-(6-methoxy-7-((1-(2-methoxyethyl)azetidin-3-yl)oxy)quinazolin-4-yl)phenyl)-2-(4-(trifluoromethyl)phenyl)acetamide]	GI50 [1, 3]: > 500 nM
≤ 200	COc1cc2c(-c3ccc(NC(=O)Cc4ccc(C(F)(F)F)cc4)cc3)ncnc2cc1OCCCN1CCN2CCCC2C1 (stereo not drawn) [Example 33, N-(4-(7-(3-(hexahydropyrrolo[1,2-a]pyrazin-2(1H)-yl)propoxy)-6-methoxyquinazolin-4-yl)phenyl)-2-(4-(trifluoromethyl)phenyl)acetamide]	GI50 [1, 3]: ≤ 200 nM
≤ 200	COc1cc2ncnc(-c3ccc(NC(=O)Cc4ccc(C(F)(F)F)cc4)cc3)c2cc1OC1CCN(C(=O)OC(C)(C)C)C1 (stereo not drawn) [Example 136, tert-butyl 3-((7-methoxy-4-(4-(2-(4-(trifluoromethyl)phenyl)acetamido)phenyl)quinazolin-6-yl)oxy)pyrrolidin-1-carboxylate]	–
≤ 200	COc1cc2c(-c3ccc(NC(=O)Cc4ccc(C(F)(F)F)cc4)cc3)ncnc2cc1OCCCN1CCn2c(nnc2C(F)(F)F)C1 [Example 34, N-(4-(6-methoxy-7-(3-(3-(trifluoromethyl)-5,6-dihydro-[1,2,4]triazolo[4,3-a]pyrazin-7(8H)-yl)propoxy)quinazolin-4-yl)phenyl)-2-(4-(trifluoromethyl)phenyl)acetamide]	GI50 [1, 3]: ≤ 200 nM
≤ 200	COc1cc2ncnc(-c3ccc(NC(=O)Cc4ccc(C(F)(F)F)cc4)cc3)c2cc1OCCCN1CCN(C2CC2)CC1 [Example 127, N-(4-(6-(3-(4-cyclopropylpiperazin-1-yl)propoxy)-7-methoxyquinazolin-4-yl)phenyl)-2-(4-(trifluoromethyl)phenyl)acetamide]	GI50 [1, 3]: 200 to 500 nM
> 500	COc1cc2c(-c3ccc(NC(=O)Cc4ccc(C(F)(F)F)cc4)cc3)ncnc2cc1OCCCN1CC2(CNC2)C1 [Example 20, N-(4-(7-(3-(2,6-diazaspiro[3.3]heptane-2-yl)propoxy)-6-methoxyquinazolin-4-yl)phenyl)-2-(4-(trifluoromethyl)phenyl)acetamide]	–
≤ 200	COc1cc2ncnc(-c3ccc(NC(=O)Cc4ccc(C(F)(F)F)cc4)cc3)c2cc1OCCCN1CCN(C(C)=O)CC1 [Example 128, N-(4-(6-(3-(4-acetylpiperazin-1-yl)propoxy)-7-methoxyquinazolin-4-yl)phenyl)-2-(4-(trifluoromethyl)phenyl)acetamide]	–
≤ 200	COc1cc2ncnc(-c3ccc(NC(=O)Cc4ccc(C(F)(F)F)cc4)cc3)c2cc1OCCCNc1cnn(C)c1 [Example 155, N-(4-(7-methoxy-6-(3-((1-methyl-1H-pyrazol-4-yl)amino)propoxy)quinazolin-4-yl)phenyl)-2-(4-(trifluoromethyl)phenyl)acetamide]	–
> 500	COc1cc2c(-c3ccc(NC(=O)Cn4cc(C(C)(C)C)nn4)cc3)ncnc2cc1OCC1CCNCC1 [Example 62, 2-(4-(tert-butyl)-1H-1,2,3-triazole-1-yl)-N-(4-(6-methoxy-7-(piperidin-4-ylmethoxy)quinazolin-4-yl)phenyl)acetamide]	–
≤ 200	COc1cc2c(-c3ccc(NC(=O)Cc4ccc(C(F)(F)F)c(F)c4)cc3)ncnc2cc1OCC1CCNCC1 [Example 79, 2-(3-fluoro-4-(trifluoromethyl)phenyl)-N-(4-(6-methoxy-7-(piperidin-4-ylmethoxy)quinazolin-4-yl)phenyl)acetamide]	–
≤ 200	CCN1CCC(COc2cc3ncnc(-c4ccc(NC(=O)Cn5cc(C(C)(C)C)nn5)cc4)c3cc2OC)CC1 [Example 66, 2-(4-(tert-butyl)-1H-1,2,3-triazole-1-yl)-N-(4-(7-((1-ethylpiperidin-4-yl)methoxy)-6-methoxyquinazolin-4-yl)phenyl)acetamide]	–
≤ 200	C=CCC(=O)Nc1ccc(-c2ncnc3cc(OCCCN4CCN(C)CC4)c(OC)cc23)cc1 [Example 87, N-(4-(6-methoxy-7-(3-(4-methylpiperazin-1-yl)propoxy)quinazolin-4-yl)phenyl)but-3-enamide]	–
